Read-outs that look alike come from different tables or passages of the source.
What was measured:
Assay type in all cases: cell-based
Normal WI38 (NSC) = assay: Viability of normal WI38 cells (NSC), 72 h, PI staining and flow cytometry
Description: (§1) Normal WI38 (NSC) and IR-induced senescent WI38 cells (IR-SC) were incubated with vehicle or increasing concentrations of compounds of Formula (I) or Formula (II) for 72 hours. The cells were digested with 0.25% trypsin and 1 mM EDTA, and harvested in PBS containing 2% FBS. After incubation with propidium iodide (PI, 100 ng/ml) in PBS at room temperature for 1 minute, cells were centrifuged at 1,200 rpm for 6 minutes to remove PI and then resuspended in PBS containing 2% FBS for analysis using a flow cytometer. Viable cells (PI-cells) were analyzed by flow cytometry at a constant flow rate to count the number of cells and calculated as a percentage of control cells treated with vehicle. Table 1 depicts the EC50 values of the compounds of Formula (I) and compounds of Formula (II) against normal WI38 and IR-induced senescent WI38.

Bcl-xL [1] = target: T1, Bcl-xL (Homo sapiens, UniProt Q07817); assay: Protein degradation assay (Western blot) in RS4;11 cells; parameters: dose or concentration left out as unconfirmed
T1 construct: endogenous in cells; host or cells: WI38 cells (normal NC-WI38 and ionizing-radiation-induced senescent IR-SC WI38)
Description: […] The cells were harvested in RIPA lysis buffer with 1% Phosphatase Inhibitor Cocktail 3 and 1% Protease Inhibitor Cocktail. An equal amount of protein (15-30 μg/lane) from each cell extract was resolved on a 12% SDS-PAGE gel. Proteins were blotted onto a NOVEX PVDF membrane by electrophoresis. The membranes were blocked with TBS-T blocking buffer (5% nonfat milk in 25 mM Tris-HCL, pH 7.4; 3 mM KCl; 140 mM NaCl; and 0.05% Tween) and probed with primary antibodies (at a predetermined optimal concentration) overnight at 4° C. or for 1 hour at room temperature. After extensive washing with TBS-T, the membranes were incubated with an appropriate peroxidase-conjugated secondary antibody (Jackson ImmunoResearch Europe, Suffolk, UK) for 1 hour at room temperature. After three washes with TBS-T, the proteins of interest were detected with ECL Western Blotting Detection Reagents and recorded with autoradiography. The primary antibody Bcl-xl (#2762), Bcl-2 antibody (#2872S), Bcl-w (#2724S), Mcl-1 (#5453s) and β-actin (13E5, #4970) were purchased from Cell Signaling.

[2] = tested on: IR-induced senescent WI38 cells (IR-SC); assay: Viability of IR-induced senescent WI38 cells (IR-SC), 72 h, PI staining and flow cytometry; details: for EC50: IR-induced senescent WI38 cells, 72 hours, viable (PI-) cells as percentage of vehicle control; for Ratio NSC/SC: ratio of WI38 EC50 in NSC to EC50 in IR-SC
Description: as §1

Bcl-xL [3] = target: T1, Bcl-xL; assay: Protein degradation assay (Western blot) in IR-SC WI38 cells; details: for Bcl-xL depletion in IR-SC WI38 cells: 1 μM (FIG. 4A)
Description: IR-SC WI38 cells were incubated with vehicle or increasing concentrations of XZ-14439 for 18 hours at increasing […] (FIG. 3A) and at a fixed concentration of XZ-14439 for increasing times (FIG. […]). The cells were digested with 0.25% trypsin and 1 mM EDTA, and harvested in RIPA lysis buffer with 1% Phosphatase Inhibitor Cocktail 3 and 1% Protease Inhibitor Cocktail. An equal amount of protein (15-30 μg/lane) from each cell extract was resolved on a 12% SDS-PAGE gel. Proteins were blotted onto a NOVEX PVDF membrane by electrophoresis. The membranes were blocked with TBS-T blocking buffer (5% nonfat milk in 25 mM Tris-HCL, pH 7.4; 3 mM KCl; […] NaCl; and 0.05% Tween) and probed with primary antibodies (at a predetermined optimal concentration) overnight at 4° C. or for 1 hour at room temperature. After extensive washing with TBS-T, the membranes were incubated with an appropriate peroxidase-conjugated secondary antibody for 1 hour at room temperature. After three washes with TBS-T, the proteins of interest were detected with ECL Western Blotting Detection Reagents and recorded with autoradiography (Pierce Biotech, Rockford, Ill., USA). The primary antibody Bcl-x (#2762), Bcl-2 antibody (#2872S) and β-actin (13E5, #4970) were purchased from Cell Signaling.
IR-SC WI38 (FIG. 4A) and RS4; 11 (FIG. 4B) cells were incubated with vehicle or increasing concentrations of compounds of Formula (I) or Formula (II) for 6 or 16 hours, at 1 μM (FIG. 4A) and 100 nm (FIG. 4B), respectively. The cells were harvested in RIPA lysis buffer with 1% Phosphatase Inhibitor Cocktail 3 and 1% Protease Inhibitor Cocktail. An equal amount of protein (15-30 μg/lane) from each cell extract was resolved on a 12% SDS-PAGE gel. Proteins were blotted onto a NOVEX PVDF membrane by electrophoresis. The membranes were blocked with TBS-T blocking buffer (5% nonfat milk in 25 mM Tris-HCL, pH 7.4; 3 mM KCl; 140 mM NaCl; and 0.05% Tween) and probed with primary antibodies (at a predetermined optimal concentration) overnight at 4° C. or for 1 hour at room temperature. After extensive washing with TBS-T, the membranes were incubated with an appropriate peroxidase-conjugated secondary antibody (Jackson ImmunoResearch Europe, Suffolk, UK) for 1 hour at room temperature. After three washes with TBS-T, the proteins of interest were detected with ECL Western Blotting Detection Reagents and recorded with autoradiography. The primary antibody Bcl-xl (#2762), Bcl-2 antibody (#2872S), Bcl-w (#2724S), Mcl-1 (#5453s) and β-actin (13E5, #4970) were purchased from Cell Signaling.

RS4; 11 cancer cells = assay: Cancer cell viability by MTS, 72 h, RS4;11; details: RS4;11 cells
Description: (§2) RS4; 11 and NCI-H146 cancer cells were incubated with vehicle or increasing concentrations of compounds of Formula (I) and Formula (II). At 72 hours post-treatment cell viability was measured by MTS and EC50 was calculated as a percentage of control cells treated with vehicle. Table 1 depicts the EC50 values of compounds of Formula (I) and Formula (II) against RS4; 11 and NCI-H146.

NCI-H146 cancer cells = assay: Cancer cell viability by MTS, 72 h, NCI-H146
Description: as §2

[4] = viable (PI-) cells as percentage of vehicle control
[5] = Homo sapiens, WI-38, viable (PI-) cells as percentage of vehicle control

T1 sequence (Q07817 whole entry): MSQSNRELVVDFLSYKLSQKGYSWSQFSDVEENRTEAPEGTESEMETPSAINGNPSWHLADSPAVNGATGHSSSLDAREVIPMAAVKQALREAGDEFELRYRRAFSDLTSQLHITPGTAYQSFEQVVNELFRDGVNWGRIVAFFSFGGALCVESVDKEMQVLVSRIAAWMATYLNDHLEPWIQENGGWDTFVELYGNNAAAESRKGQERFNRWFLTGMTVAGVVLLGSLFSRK

Row | SMILES | EC50 (Normal WI38 (NSC); [4]) | Bcl-xL depletion in RS4; 11 cells (Bcl-xL [1]) | EC50 [2] | Ratio NSC/SC [2] | Bcl-xL depletion in IR-SC WI38 cells (Bcl-xL [3]) | EC50 (RS4; 11 cancer cells) | EC50 (NCI-H146 cancer cells) | EC50 (Normal WI38 (NSC); [5]) | EC50 ([2]; Homo sapiens, WI-38) | Bcl-xL depletion in IR-SC WI38 cells, dose and time dependence (Bcl-xL [3]; increasing concentrations for 18 hours (FIG. 3A), fixed concentration for increasing times (FIG. 3B)) | EC50 (RS4; 11 cancer cells; Homo sapiens) | EC50 (NCI-H146 cancer cells; Homo sapiens)
1 | CC1(C)CCC(c2ccc(Cl)cc2)=C(CN2CCN(c3ccc(C(=O)NS(=O)(=O)c4ccc(N[C@H](CCN5CCN(C(=O)CCCn6cc(COCCOCCNc7cccc8c7C(=O)N(C7CCC(=O)NC7=O)C8=O)nn6)CC5)CSc5ccccc5)c(S(=O)(=O)C(F)(F)F)c4)cc3)CC2)C1 (some centres unmarked) [PZ-15227] | > 10 µM | deplete Bcl-xL | 0.108 µM | >92 | deplete Bcl-xL | 0.114 µM | 0.0689 µM |  |  |  |  | 
2 | CC1(C)CCC(c2ccc(Cl)cc2)=C(CN2CCN(c3ccc(C(=O)NS(=O)(=O)c4ccc(N[C@H](CCN5CCN(C(=O)CCCn6cc(COCCOCCOCCNc7cccc8c7C(=O)N(C7CCC(=O)NC7=O)C8=O)nn6)CC5)CSc5ccccc5)c(S(=O)(=O)C(F)(F)F)c4)cc3)CC2)C1 (stereo partly drawn) [XZ-14439, 4-(4-((4′-chloro-4,4-dimethyl-3,4,5,6-tetrahydro-[1,1′-biphenyl]-2-yl)methyl)piperazin-1-yl)-N-((4-(((2R)-4-(4-(4-(4-((2-(2-(2-((2-(2,6-dioxopiperidin-1,3-yl)-1,3-dioxoisoindolin-4-yl)amino)ethoxy)ethoxy)ethoxy)methyl)-1H-1,2,3-triazol-1-yl)butanoyl)piperazin-1-yl)-1-(phenylthio)butan-2-yl)amino)-3-((trifluoromethyl)sulfonyl)phenyl)sulfonyl)benzamide] |  |  |  | >20.88 |  |  |  | > 20 µM | 0.87 µM | depletes Bcl-xL in IR-SC WI38 cells in both a dose dependent (FIG. 3A) and time dependent (FIG. 3B) manner | 0.0844 µM | 0.0696 µM
3 | Cc1ncsc1-c1ccc(CNC(=O)[C@@H]2C[C@@H](O)CN2C(=O)[C@@H](NC(=O)CCC(=O)NCCOCCOCCNC(=O)N2CCN(CC[C@H](CSc3ccccc3)Nc3ccc(S(=O)(=O)NC(=O)c4ccc(N5CCN(CC6=C(c7ccc(Cl)cc7)CCC(C)(C)C6)CC5)cc4)cc3S(=O)(=O)C(F)(F)F)CC2)C(C)(C)C)cc1 [XZ-14529] |  |  |  |  |  |  |  | > 10 µM | > 10 µM |  | 0.823 µM | > 2 µM
4 | CC1(C)CCC(c2ccc(Cl)cc2)=C(CN2CCN(c3ccc(C(=O)NS(=O)(=O)c4ccc(N[C@H](CCN5CCN(C(=O)COCCOCCOCCOCCNc6cccc7c6C(=O)N(C6CCC(=O)NC6=O)C7=O)CC5)CSc5ccccc5)c(S(=O)(=O)C(F)(F)F)c4)cc3)CC2)C1 (some centres unmarked) [XZ-14540] |  |  |  | 8.86 |  |  |  | > 10 µM | 1.13 µM |  | 0.0824 µM | 0.0762 µM
5 | CC1(C)CCC(c2ccc(Cl)cc2)=C(CN2CCN(c3ccc(C(=O)NS(=O)(=O)c4ccc(N[C@H](CCN5CCN(CCOCCOCCNc6cccc7c6C(=O)N(C6CCC(=O)NC6=O)C7=O)CC5)CSc5ccccc5)c(S(=O)(=O)C(F)(F)F)c4)cc3)CC2)C1 (stereo partly drawn) [XZ-15405, 4-(4-((4′-chloro-4,4-dimethyl-3,4,5,6-tetrahydro-[1,1′-biphenyl]-2-yl)methyl)piperazin-1-yl)-N-((4-(((2R)-4-(4-(2-(2-(2-((2-(2,6-dioxopiperidin-3-yl)-1,3-dioxoisoindolin-4-yl)amino)ethoxy)ethoxy)ethyl)piperazin-1-yl)-1-(phenylthio)butan-2-yl)amino)-3-((trifluoromethyl)sulfonyl)phenyl)sulfonyl)benzamide] |  | deplete Bcl-xL |  | >65.97 | deplete Bcl-xL |  |  | > 10 µM | 0.152 µM |  | 0.0248 µM | 
6 | CC1(C)CCC(c2ccc(Cl)cc2)=C(CN2CCN(c3ccc(C(=O)NS(=O)(=O)c4ccc(N[C@H](CCN5CCN(CCOCCNc6cccc7c6C(=O)N(C6CCC(=O)NC6=O)C7=O)CC5)CSc5ccccc5)c(S(=O)(=O)C(F)(F)F)c4)cc3)CC2)C1 (stereo partly drawn) [XZ-15416, 4-(4-((4′-chloro-4,4-dimethyl-3,4,5,6-tetrahydro-[1,1′-biphenyl]-2-yl)methyl)piperazin-1-yl)-N-((4-(((2R)-4-(4-(2-(2-((2-(2,6-dioxopiperidin-3-yl)-1,3-dioxoisoindolin-4-yl)amino)ethoxy)ethyl)piperazin-1-yl)-1-(phenylthio)butan-2-yl)amino)-3-((trifluoromethyl)sulfonyl)phenyl)sulfonyl)benzamide] |  | deplete Bcl-xL |  | >64.02 | deplete Bcl-xL |  |  | > 10 µM | < 0.156 µM |  | 0.0307 µM | > 0.01 µM
7 | CC1(C)CCC(c2ccc(Cl)cc2)=C(CN2CCN(c3ccc(C(=O)NS(=O)(=O)c4ccc(N[C@H](CCN5CCN(CCOCCOCCOCCNc6cccc7c6C(=O)N(C6CCC(=O)NC6=O)C7=O)CC5)CSc5ccccc5)c(S(=O)(=O)C(F)(F)F)c4)cc3)CC2)C1 (stereo partly drawn) [XZ-15418, 4-(4-((4′-chloro-4,4-dimethyl-3,4,5,6-tetrahydro-[1,1′-biphenyl]-2-yl)methy)piperazin-1-yl)-N-((4-(((2R)-4-(4-(2-(2-(2-(2-((2-(2,6-dioxopiperidin-3-yl)-1,3-dioxoisoindolin-4-yl)amino)ethoxy)ethoxy)ethoxy)ethyl)piperazin-1-yl)-1-(phenylthio)butan-2-yl)amino)-3-((trifluoromethyl)sulfonyl)phenyl)sulfonyl)benzamide] | > 10 µM | deplete Bcl-xL | 0.172 µM | >58.06 | deplete Bcl-xL | 0.0123 µM |  |  |  |  |  | 
8 | CC1(C)CCC(c2ccc(Cl)cc2)=C(CN2CCN(c3ccc(C(=O)NS(=O)(=O)c4ccc(N[C@H](CCN5CCN(C(=O)Cn6cc(COCCOCCNc7cccc8c7C(=O)N(C7CCC(=O)NC7=O)C8=O)nn6)CC5)CSc5ccccc5)c(S(=O)(=O)C(F)(F)F)c4)cc3)CC2)C1 (some centres unmarked) [XZ-15421] |  | deplete Bcl-xL |  | >64.02 | deplete Bcl-xL |  |  | > 10 µM | < 0.156 µM |  | 0.0729 µM | 
